Measurements from ChEMBL document CHEMBL4130539, “Novel ureidopropanamide based N-formyl peptide receptor 2 (FPR2) agonists with potential application for central nervous system disorders characterized by neuroinflammation” (Eur J Med Chem, 2017).

Assays:
[1] = molecular target: T1, N-formyl peptide receptor 2 (Homo sapiens, UniProt P25090); experiment: Agonist activity at human FPR2 expressed in human HL60 cells assessed as induction of calcium mobilization measured every 5 secs for 240 secs by Fluo-4-AM dye based fluorometric method; assay type: functional, cell-based
T1 sequence (P25090 whole entry): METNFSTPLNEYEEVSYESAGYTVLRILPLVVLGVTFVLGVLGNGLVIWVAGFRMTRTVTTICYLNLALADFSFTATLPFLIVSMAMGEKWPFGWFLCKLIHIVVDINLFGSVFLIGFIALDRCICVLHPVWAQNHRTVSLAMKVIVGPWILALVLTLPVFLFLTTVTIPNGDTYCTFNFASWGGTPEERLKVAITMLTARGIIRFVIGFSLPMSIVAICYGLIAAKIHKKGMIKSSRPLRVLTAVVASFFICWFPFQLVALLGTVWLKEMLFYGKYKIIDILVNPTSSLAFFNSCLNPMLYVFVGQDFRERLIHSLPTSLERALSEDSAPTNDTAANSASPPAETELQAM

[2] = molecular target: T2, fMet-Leu-Phe receptor (Homo sapiens, UniProt P21462); experiment: Agonist activity at human FPR1 expressed in human HL60 cells assessed as induction of calcium mobilization measured every 5 secs for 240 secs by Fluo-4-AM dye based fluorometric method; assay type: functional, cell-based
T2 sequence (P21462 whole entry): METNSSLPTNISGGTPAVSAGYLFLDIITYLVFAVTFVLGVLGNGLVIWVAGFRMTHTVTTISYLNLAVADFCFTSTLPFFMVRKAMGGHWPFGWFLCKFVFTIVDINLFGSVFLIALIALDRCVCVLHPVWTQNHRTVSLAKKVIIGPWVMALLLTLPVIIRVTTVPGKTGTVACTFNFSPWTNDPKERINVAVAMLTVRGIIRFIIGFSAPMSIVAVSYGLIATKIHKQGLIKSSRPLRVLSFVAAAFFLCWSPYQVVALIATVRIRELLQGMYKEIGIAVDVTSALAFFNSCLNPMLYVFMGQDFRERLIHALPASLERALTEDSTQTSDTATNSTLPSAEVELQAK

[3] = molecular target: T1, N-formyl peptide receptor 2; experiment: Agonist activity at FPR2 in human neutrophils assessed as induction of calcium mobilization measured every 5 secs for 240 secs by Fluo-4-AM dye based fluorometric method; assay type: functional
[4] = Metabolic stability in rat liver microsomes assessed as parent compound remaining at 10 uM preincubated for 10 mins followed by NADPH addition measured after 30 mins by liquid chromatographic method; assay type: ADME, microsome; conditions: 0.5 h
[5] = Half life in rat liver microsomes at 10 uM preincubated for 10 mins followed by NADPH addition by liquid chromatographic method; assay type: ADME, microsome
[6] = Intrinsic clearance in rat liver microsomes at 10 uM preincubated for 10 mins followed by NADPH addition by liquid chromatographic method; assay type: ADME, microsome
[7] = molecular target: T3, N-formyl peptide receptor 2 (Homo sapiens) (UniProt P25090); experiment: Agonist activity at human FPR2 expressed in human HL60 cells assessed as induction of calcium mobilization measured every 5 secs for 240 secs by Fluo-4-AM dye based fluorometric method relative to WKYMVM; assay type: functional, cell-based
T3 sequence (whole entry): T1 sequence (P25090 whole entry)

[8] = molecular target: T4, fMet-Leu-Phe receptor (Homo sapiens) (UniProt P21462); experiment: Agonist activity at human FPR1 expressed in human HL60 cells assessed as induction of calcium mobilization measured every 5 secs for 240 secs by Fluo-4-AM dye based fluorometric method relative to fMLF; assay type: functional, cell-based
T4 sequence (whole entry): T2 sequence (P21462 whole entry)

[9] = molecular target: T3, N-formyl peptide receptor 2 (Homo sapiens); experiment: Agonist activity at FPR2 in human neutrophils assessed as induction of calcium mobilization measured every 5 secs for 240 secs by Fluo-4-AM dye based fluorometric method relative to fMLF

O=C(Nc1ccccc1)N[C@@H](Cc1c[nH]c2ccccc12)C(=O)NCC1(c2ccccc2)CC1
EC50 ([1]; read-out: EC50): 6.7 µM | EC50 ([2]; read-out: EC50): 2.4 µM | EC50 ([3]; read-out: EC50): 1.5 µM | Stability [4]: 5%

COc1ccc(NC(=O)N[C@H](Cc2ccc(C#N)cc2)C(=O)NCC2(c3ccc(OC(F)(F)F)cc3)CC2)cc1
EC50 [1]: Not Active | EC50 [2]: Not Active | EC50 [3]: Not Active | Stability [4]: 43%

N#Cc1ccc(C[C@H](NC(=O)Nc2ccc(F)cc2)C(=O)NCC2(c3ccc(OC(F)(F)F)cc3)CC2)cc1
EC50 [1]: Not Active | EC50 [2]: Not Active | EC50 [3]: Not Active | Stability [4]: 80%

N#Cc1ccc(C[C@@H](NC(=O)Nc2ccc(F)cc2)C(=O)NCC2(c3ccc(OC(F)(F)F)cc3)CC2)cc1
EC50 [1]: Not Active | EC50 [2]: Not Active | EC50 [3]: Not Active | Stability [4]: 88%

Cc1ccc(C2(CNC(=O)[C@@H](Cc3ccc(C#N)cc3)NC(=O)Nc3ccc(F)cc3)CC2)cc1F
EC50 [1]: Not Active | EC50 [2]: Not Active | EC50 [3]: Not Active | Stability [4]: 37% | t1/2 [5]: 0.983 h | Microsomal intrinsic clearance (CLint) [6]: 10.04 µL/min/mg

COc1ccc(NC(=O)N[C@@H](Cc2ccc(C#N)cc2)C(=O)NCC2(c3ccc(C)c(F)c3)CC2)cc1
EC50 ([1]; read-out: EC50): 16.3 µM | EC50 ([2]; read-out: EC50): 10.3 µM | EC50 ([3]; read-out: EC50): 1.7 µM | Stability [4]: 8%

O=C(Nc1ccc(F)cc1)N[C@H](Cc1c[nH]c2ccccc12)C(=O)NCC1(c2ccccc2)CC1
EC50 [1]: Not Active | EC50 [2]: Not Active | EC50 [3]: Not Active

O=C(Nc1ccc(F)cc1)N[C@@H](Cc1c[nH]c2ccccc12)C(=O)NCC1(c2ccccc2)CC1
EC50 ([1]; read-out: EC50): 2 µM | EC50 ([2]; read-out: EC50): 18.8 µM | EC50 [3]: Not Active | Stability [4]: 4%

COc1ccc(NC(=O)N[C@H](Cc2ccc(C#N)cc2)C(=O)NCC2(c3ccc(C)c(F)c3)CC2)cc1
EC50 [1]: Not Active | EC50 [2]: Not Active | EC50 [3]: Not Active | Stability [4]: 10%

Cc1ccc(C2(CNC(=O)[C@H](Cc3ccc(C#N)cc3)NC(=O)Nc3ccc(F)cc3)CC2)cc1F
EC50 ([1]; read-out: EC50): 3 µM | EC50 ([2]; read-out: EC50): 5.9 µM | EC50 ([3]; read-out: EC50): 1.7 µM | Stability [4]: 39%

O=C(Nc1ccc([N+](=O)[O-])cc1)N[C@H](Cc1c[nH]c2ccccc12)C(=O)NCC1(c2ccccc2)CC1
Stability [4]: 15%

N#Cc1ccc(C[C@@H](NC(=O)Nc2ccc([N+](=O)[O-])cc2)C(=O)NCC2(c3ccccc3)CC2)cc1
EC50 ([1]; read-out: EC50): 1.5 µM | Efficacy [7]: 90% | EC50 ([2]; read-out: EC50): 4.7 µM | Efficacy [8]: 75% | EC50 ([3]; read-out: EC50): 4.1 µM | Stability [4]: 38% | t1/2 [5]: 1.58 h | Microsomal intrinsic clearance (CLint) [6]: 7.29 µL/min/mg | Efficacy [9]: 150%

COc1ccc(NC(=O)N[C@@H](Cc2ccc(C#N)cc2)C(=O)NCC2(c3ccc(OC(F)(F)F)cc3)CC2)cc1
EC50 [1]: Not Active | EC50 [2]: Not Active | EC50 [3]: Not Active | Stability [4]: 51%

N#Cc1ccc(C[C@@H](NC(=O)Nc2ccc(F)cc2)C(=O)NCC2(c3ccc(F)c(Cl)c3)CC2)cc1
EC50 ([1]; read-out: EC50): 0.3 µM | Efficacy [7]: 90% | EC50 ([2]; read-out: EC50): 5.4 µM | Efficacy [8]: 55% | EC50 ([3]; read-out: EC50): 1.3 µM | Stability [4]: 20% | t1/2 [5]: 0.783 h | Microsomal intrinsic clearance (CLint) [6]: 14.7 µL/min/mg | Efficacy [9]: 95%

O=C(Nc1ccc([N+](=O)[O-])cc1)N[C@@H](Cc1cccnc1)C(=O)NCC1(c2ccccc2)CC1
EC50 ([1]; read-out: EC50): 6.4 µM | Efficacy [7]: 60% | EC50 ([2]; read-out: EC50): 0.85 µM | Efficacy [8]: 125% | EC50 ([3]; read-out: EC50): 0.73 µM | Stability [4]: 51% | t1/2 [5]: 1.83 h | Microsomal intrinsic clearance (CLint) [6]: 6.3 µL/min/mg | Efficacy [9]: 65%

COc1ccc(NC(=O)N[C@@H](Cc2ccc(C#N)cc2)C(=O)NCC2(c3ccc(F)c(Cl)c3)CC2)cc1
EC50 ([1]; read-out: EC50): 3.4 µM | Efficacy [7]: 60% | EC50 ([2]; read-out: EC50): 0.45 µM | Efficacy [8]: 115% | EC50 ([3]; read-out: EC50): 0.33 µM | Stability [4]: 10% | Efficacy [9]: 155%

COc1ccc(NC(=O)N[C@@H](Cc2c[nH]c3ccccc23)C(=O)NCC2(c3ccccc3)CC2)cc1
EC50 ([1]; read-out: EC50): 0.11 µM | EC50 ([2]; read-out: EC50): 0.95 µM | EC50 ([3]; read-out: EC50): 1.4 µM | Stability [4]: 3%

COc1ccc(NC(=O)N[C@H](Cc2ccc(C#N)cc2)C(=O)NCC2(c3ccc(F)c(Cl)c3)CC2)cc1
EC50 ([1]; read-out: EC50): 1.8 µM | Efficacy [7]: 60% | EC50 ([2]; read-out: EC50): 0.63 µM | Efficacy [8]: 100% | EC50 ([3]; read-out: EC50): 0.73 µM | Stability [4]: 5% | Efficacy [9]: 115%

O=C(Nc1ccccc1)N[C@H](Cc1c[nH]c2ccccc12)C(=O)NCC1(c2ccccc2)CC1
EC50 [1]: Not Active | EC50 [2]: Not Active | EC50 [3]: Not Active | Stability [4]: 4%

COc1ccc(NC(=O)N[C@H](Cc2c[nH]c3ccccc23)C(=O)NCC2(c3ccccc3)CC2)cc1
EC50 ([1]; read-out: EC50): 6.5 µM | EC50 [2]: Not Active | EC50 [3]: Not Active | Stability [4]: 4%
